Values joined by “and” are separate entries in the source; they are usually repeats but may differ in a detail not shown here. Equal values may be shown once. Where a name gives a salt, the structure may show the parent alone. Read-outs that look alike come from different tables or passages of the source.

A word on the EC50: it is the concentration that produces a half-maximal response. The term melting point denotes the temperature, or range, at which the solid turns liquid. A word on the IC50: it is the concentration that inhibits the measured activity by half.

A short description of series [1]: Toxicity in HT4-6C cells by visual grading of cell morphology. As to conditions: human. Here is the method:
(§1) Selected compounds of the invention and PFA were tested for activity in HT4-6C cell by procedures disclosed in B. A. Larder et al., Science, 243:1731-1734 (1989). […] The TC50 values were determined using the following visual grading scale after 3 days to exposure to the tested drug compound: 4—normal appearance; 3—slight reduction of normal cells; 2-50% of cells appear normal; 1—sparse number of normal appearing cells; 0—no living cells. Values reported in the Table below are mean ±standard deviation.

In series [2] the test system is HIV-1. As to conditions: for reduction of the number of viral plaques: at 1 μM, the highest concentration achievable in the growth medium.
Source text: (§2) (EC50 is concentration to reduce HIV plaques by 50% and expressed as mean ±standard deviation).
For series [3], the system named is LAI-E89K. The experiment in a line: HIV plaque reduction assay, PFA-resistant strain. Format: cell-based, HIV-1.
Procedure: (§3) Compounds of the invention were tested in a plaque-forming assay of HIV-1 proliferation in a human CD4+lymphocytic cell line (HT-4) by the procedures described in K. Y. Hostetler et al., J. Biol. Chem., 265:6112-6117 (1990); and K. Y. Hostetler et al., J. Biol. Chem., 266:11714-11717 (1991). […] (EC50 is concentration to reduce HIV plaques by 50% and expressed as mean ±standard deviation).
(§4) The assays were conducted by procedures of Example 27 above and as disclosed in K. Y. Hostetler et al., J. Biol. Chem., 265:6112-6117 (1990); and K. Y. Hostetler et al., J. Biol. Chem., 266:11714-11717 (1991).
Series [4] deals with human T-Lymphoblastic Leukemia Cells (CEM cells). The experiment in a line: Toxicity in CEM cells by propidium iodide staining and flow cytometry. Format: cell-based. As to conditions: for CC50: rapidly dividing CEM cells, viable cell numbers, read-out: TC50 (the source's name); for Selectivity Index: TC50 in CEM cells / EC50. How it is done: TC50 values were also assessed by exposing rapidly dividing human T-Lymphoblastic Leukemia Cells (CEM cells) to selected compounds of the invention and PFA. Viable cell numbers were determined by propidium iodide staining and fluorescent flow cytometry according to procedures disclosed in Dangl et al., Cytometry, 2:395-401 (1982).
(In general: A flow cytometer gives signals particle by particle.)

The test system of series [5] is HIV-1LAI. The experiment in a line: HIV plaque reduction assay, wild-type strain. Format: cell-based. As to conditions: Human immunodeficiency virus 1. (In general: In a plaque reduction assay, fewer plaques than in the control indicate reduced infectivity or spread.)
Procedure: as §3, §4
Series [6] concerns A018-post. The experiment in a line: HIV plaque reduction assay, AZT-resistant strain. Format: cell-based, HIV-1. As to conditions: Human immunodeficiency virus 1.
Procedure: as §3, §4
The test system of series [7] is HT4-6C cells. The experiment in a line: Toxicity in HT4-6C cells by visual grading of cell morphology. As to conditions: for Selectivity Index: TC50/EC50, HT4-6C cells. How it is done:
as §1

In series [8] the test system is HIV-1. The experiment in a line: microbe, parasite or virus in culture. As to conditions: for EC50: Human immunodeficiency virus 1, read-out: EC50(HIV-1).
Source text: as §2
For series [9], the system named is A018-post. As to conditions: AZT-resistant, AZT data from Larder et al., Science 1989; cited from earlier work.

In turn, `CCCCCCCCCCCCCCCCCCOC(=O)P(=O)(O)OC` [Example 8, Sodium Methyl 1-octadecyloxycarbonylphosphonate] showed a CC50 at 3 days in series [1] of 10 µM. Further, in series [2] (HT-4 cells), the “reduction of the number of viral plaques” value amounted to 35%.
With `CCCCCCCCCCCCCCCCOCCCOP(=O)(O)C(=O)OC[C@H]1O[C@@H](n2cc(C)c(=O)[nH]c2=O)C[C@@H]1N=[N+]=[N-]` [Example 25], the EC50 in [3] (LAI-E89K, PFA-resistant, mean ± SD of 3 experiments, Example 25: single test value, read-out: EC50) worked out at 1.3 µM. Further, the CC50 in series [4] is 65 µM.
Regarding `CCCCCCCCCCCCCCCCCCCCOC(=O)P(=O)(O)OC[C@H]1O[C@@H](n2cc(C)c(=O)[nH]c2=O)C[C@@H]1N=[N+]=[N-]` [Example 21], the EC50 in [5] was determined as 0.14 ± 0.16 µM; in series [3] (Human immunodeficiency virus 1), 0.009 ± 0.007 µM; in series [6] it was 0.53 ± 0.68 µM; in [8] it was 0.05 µM. The CC50 at 3 days in series [1] was 32 µM. For the same compound, the “Selectivity Index” value in [7] was 228; in series [4] it was 257. Moreover, the cytotoxicity entry was “slight to moderate” in series [7] (at 0.1-1.0 μM); “significant” in [7] (at 10 and 100 μM). Also, the therapeutic selectivity result in series [7] (toxic concentration over EC50(HIV-1)) was “ca. 200”. Besides, the CC50 in series [4] was 36 µM. The “fold less active than AZT” value in series [2] (EC50(HIV-1) compared with AZT) came to 7 fold. Besides, the “times more active than PFA” value in [2] (EC50(HIV-1) compared with PFA) was 2,800 times.
Take `CCCCCCCCCCCCCCCCCCOC(=O)P(=O)(O)OC[C@H]1O[C@@H](n2cc(C)c(=O)[nH]c2=O)C[C@@H]1N=[N+]=[N-]` [Example 20]: the half-maximal effective concentration (EC50) in series [5] came out at 0.1 ± 0.15 µM; in series [3] (Human immunodeficiency virus 1) it was 0.13 ± 0.14 µM; in [6], 0.3 ± 0.32 µM. In addition, the CC50 at 3 days in series [1] worked out at 10 µM. In addition, the “Selectivity Index” value in series [7] was found to be 100; in [4], 280. Also, in series [4], the CC50 stood at 28 µM.
As for `CCCCCCCCCCCCCCCCCCOC(=O)P(=O)(O)OC` (as salt: sodium) [Example 8, Sodium Methyl 1-octadecyloxycarbonylphosphonate], the melting point lay within 92 to 93 °C.
As to `O=C(O)P(=O)(O)O` [PFA, phosphonoformic acid, reference compound], the EC50 is 133 ± 54 µM in [5], > 1000 µM in series [3] (Human immunodeficiency virus 1) and 65 ± 13 µM in series [6]. Besides, the concentration for half-maximal inhibition (IC50) in [8] (Human immunodeficiency virus 1, read-out: IC50 (HIV-1)) worked out at 133 µM.
For `CCCCCCCCCCCCCCCCCCCCCCOC(=O)O[PH](=O)OC[C@H]1O[C@@H](n2cc(C)c(=O)[nH]c2=O)C[C@@H]1N=[N+]=[N-]` (some centres unmarked) [Example 22, 3′-Azido-3′-deoxy-5′-O-(1-docosanyloxycarbonyloxyphosphinyl) thymidine], the melting point was 238 °C (dec.).
Take `CCCCCCCCCCCCCCCCCCCCOC(=O)P(=O)(O)OC` (as salt: sodium) [Example 9, Sodium Methyl 1-eicosanyloxycarbonylphosphonate]: the melting point fell in the range of 95 to 96 °C.
As to `CCCCCCCCCCCCCCCCCCCCOC(=O)P(=O)(O)OC` [Example 9, Sodium Methyl 1-eicosanyloxycarbonylphosphonate], the CC50 at 3 days in series [1] was 10 µM. In addition, in series [2] (HT-4 cells), the “reduction of the number of viral plaques” value is listed as 35%.
As for `CCCCCCCCCCCCCCCCCCCCOC(=O)O[PH](=O)OC[C@H]1O[C@@H](n2cc(C)c(=O)[nH]c2=O)C[C@@H]1N=[N+]=[N-]` (some centres unmarked) [Example 21], the melting point is 230 °C (dec.).
`Cc1cn([C@H]2C[C@H](N=[N+]=[N-])[C@@H](COP(=O)(O)C(=O)O[C@H]3CC[C@@]4(C)C(=CC[C@H]5[C@@H]6CC[C@H]([C@H](C)CCCC(C)C)[C@@]6(C)CC[C@@H]54)C3)O2)c(=O)[nH]c1=O` [Example 23]: in series [2] (read-out: IC50 (HIV-1), plaque-forming assay, HT-4 cells), the IC50 is 0.25 µM.
Take `CCCCCCCCCCCCCCCCCCCCCCOC(=O)P(=O)(O)OC[C@H]1O[C@@H](n2cc(C)c(=O)[nH]c2=O)C[C@@H]1N=[N+]=[N-]` [Example 22]: the EC50 came to 0.32 ± 0.2 µM in series [5], 0.17 ± 0.11 µM in series [3] (Human immunodeficiency virus 1) and 0.77 ± 1.1 µM in series [6]. This compound also registered a CC50 at 3 days in series [1] of 320 µM. Also, the “Selectivity Index” value is listed as 1000 in series [7] and 291 in series [4]. The CC50 in series [4] stood at 93 µM.
Turning to `Cc1cn([C@H]2C[C@H](N=[N+]=[N-])[C@@H](CO)O2)c(=O)[nH]c1=O` [AZT, 3′-azido-3′-deoxythymidine], the EC50 in series [5] is 0.013 ± 0.006 µM; in series [3] (Human immunodeficiency virus 1) it was 0.009 ± 0.005 µM; in series [9] it was 4 µM and 2.3 µM; in series [8], 0.007 µM.
For `CCCCCCCCCCCCCCCCCCOC(=O)O[PH](=O)OC[C@H]1O[C@@H](n2cc(C)c(=O)[nH]c2=O)C[C@@H]1N=[N+]=[N-]` (some centres unmarked) [Example 20, 3′-azido-3′-deoxy-5′-O-(1-octadecyloxycarbonyloxyphosphinyl)thymidine], the melting point is 224 °C (dec.).
